How the values were obtained:
[1] = target: T1, ALDH1L2 Mitochondrial 10-formyltetrahydrofolate dehydrogen (Homo sapiens, UniProt Q3SY69); assay: Cysteine liganding, probe competition; assay type: binding
T1 construct: 200 μL of lysate containing 5 mg/ml proteome was treated with 2 μL of 100× compound stock; endogenous in cells
T1 sequence (Q3SY69 1-923): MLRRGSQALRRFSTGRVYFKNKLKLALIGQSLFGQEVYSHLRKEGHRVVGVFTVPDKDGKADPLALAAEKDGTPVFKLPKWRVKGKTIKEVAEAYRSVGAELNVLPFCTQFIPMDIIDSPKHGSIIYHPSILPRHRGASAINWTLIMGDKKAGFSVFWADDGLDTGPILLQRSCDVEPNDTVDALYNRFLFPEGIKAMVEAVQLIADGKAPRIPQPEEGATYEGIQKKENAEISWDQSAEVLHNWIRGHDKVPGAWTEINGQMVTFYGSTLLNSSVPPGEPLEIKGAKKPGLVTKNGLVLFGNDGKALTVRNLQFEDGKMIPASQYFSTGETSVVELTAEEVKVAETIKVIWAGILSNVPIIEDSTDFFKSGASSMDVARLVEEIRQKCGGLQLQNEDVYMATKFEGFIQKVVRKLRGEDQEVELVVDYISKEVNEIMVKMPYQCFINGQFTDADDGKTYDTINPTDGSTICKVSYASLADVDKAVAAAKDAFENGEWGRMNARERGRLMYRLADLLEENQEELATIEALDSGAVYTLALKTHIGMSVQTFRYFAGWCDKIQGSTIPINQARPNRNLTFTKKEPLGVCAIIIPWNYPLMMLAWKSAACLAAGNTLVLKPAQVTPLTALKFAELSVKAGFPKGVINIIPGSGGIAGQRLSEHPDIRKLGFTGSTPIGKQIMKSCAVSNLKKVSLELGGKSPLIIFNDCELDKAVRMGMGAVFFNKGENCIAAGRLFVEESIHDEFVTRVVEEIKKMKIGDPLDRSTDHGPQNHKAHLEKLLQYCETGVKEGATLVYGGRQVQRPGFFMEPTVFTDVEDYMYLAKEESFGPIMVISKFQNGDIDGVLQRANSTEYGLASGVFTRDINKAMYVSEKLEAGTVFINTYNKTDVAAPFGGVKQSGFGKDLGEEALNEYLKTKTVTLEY
Outline: (§1)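 Probe competition in native proteome: 5 mg/ml lysate, compound 1 hr 25° C, then desthiobiotin iodoacetamide (10 mM stock) 1 hr 25° C; acetone ppt, urea/DTT reduction, iodoacetamide alkylation, trypsin, streptavidin pull-down.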

[2] = target: T2, AMMECR1L AMMECR1-like protein (Homo sapiens, UniProt Q6DCA0); assay: Cysteine liganding, probe competition; assay type: binding
T2 construct: 200 μL of lysate containing 5 mg/ml proteome was treated with 2 μL of 100× compound stock; endogenous in cells
T2 sequence (Q6DCA0 whole entry): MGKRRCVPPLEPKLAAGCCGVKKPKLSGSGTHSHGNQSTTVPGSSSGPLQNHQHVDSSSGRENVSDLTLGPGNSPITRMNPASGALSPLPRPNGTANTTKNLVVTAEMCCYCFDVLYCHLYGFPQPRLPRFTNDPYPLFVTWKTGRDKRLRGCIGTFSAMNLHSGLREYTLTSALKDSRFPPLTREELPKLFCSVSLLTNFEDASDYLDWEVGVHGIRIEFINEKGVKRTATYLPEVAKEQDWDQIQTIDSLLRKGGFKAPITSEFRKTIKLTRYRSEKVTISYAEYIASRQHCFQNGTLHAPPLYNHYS
Outline: as §1

With `O=C(CCl)Nc1cc(C(F)(F)F)cc(C(F)(F)F)c1` [KBO3] the Liganded ([1]; ALDH1L2 Res# 707, uniprot Q3SY69) was “YES”, the “100 Max” value ([1]; uniprot Q3SY69) was 52.7 and the 100 ave ([1]; uniprot Q3SY69) was 52.7. For the same compound, the 500 ave ([1]; uniprot Q3SY69) was 77.55, the “500 Max” value ([1]; uniprot Q3SY69, in % (unit assumed)) was 77.55 and the Liganded ([2]; AMMECR1L Res# 153, uniprot Q6DCA0) was “YES”. The “100 Max” value ([2]; uniprot Q6DCA0) was 91.46, the 100 ave ([2]; uniprot Q6DCA0) was 91.46 and the “500 Max” value ([2]; uniprot Q6DCA0) was 85.74. It also gave a 500 ave ([2]; uniprot Q6DCA0) of 85.74.
